This test deals with CB1 (mutant) (Homo sapiens, UniProt P21554). The test is described as follows: R-SAT functional receptor assay, CB1 (mutant, truncated after amino acid 417). It counts as cell-based. Particulars: R-SAT CB1.
The mark [1] stands for this setting: Appendix A, receptor form (mutant or wild-type) not stated, read-out: pIC50 (converted).
Setting [2] is: Appendix A, receptor form not stated, relative to SR141716 (100%), read-out: % Inhibition.
Where [3] appears, read: pIC50, Appendix A, receptor form (mutant or wild-type) not stated.

Results on 57 compounds are retold here after patent US20080090805A1, “CB-1 MODULATING COMPOUNDS AND THEIR USE” (ACADIA PHARMACEUTICALS INC., priority 2005, published 2008).

Where two headings read alike, the source gives them in different places.

Chain of CB1 (mutant) (P21554 1-417, change not shown): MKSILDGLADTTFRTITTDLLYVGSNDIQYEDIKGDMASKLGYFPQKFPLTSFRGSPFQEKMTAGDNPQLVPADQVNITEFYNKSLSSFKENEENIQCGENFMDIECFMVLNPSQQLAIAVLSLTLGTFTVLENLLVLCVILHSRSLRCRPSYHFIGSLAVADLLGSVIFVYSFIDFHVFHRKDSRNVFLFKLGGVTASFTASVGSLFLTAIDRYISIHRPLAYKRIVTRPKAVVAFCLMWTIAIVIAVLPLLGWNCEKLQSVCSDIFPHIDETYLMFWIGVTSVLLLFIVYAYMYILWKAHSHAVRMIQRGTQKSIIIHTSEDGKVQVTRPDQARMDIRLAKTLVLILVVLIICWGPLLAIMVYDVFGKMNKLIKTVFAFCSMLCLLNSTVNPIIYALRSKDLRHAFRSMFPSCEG

Regarding `O=C(NCCc1cccc(Cl)c1)c1ccc2c(c1)N=C(c1ccccc1F)c1ccccc1S2` [drawing 736], the IC50 under setting [1] was 79.4 nM. In addition, under setting [2], the Emax was 91%.
The like results for `CCCCNC(=O)c1ccc2c(c1)N=C(c1cccc(Cl)c1)c1ccccc1S2` [drawing 737] were, in that order, 7.94 nM and 98%.
On to `O=C(NC1CCCCC1)c1ccc2c(c1)N=C(c1ccc(Cl)cc1)c1ccccc1S2` [drawing 738], for which, under setting [1], the IC50 is 79.4 nM. Moreover, under setting [2], the Emax was found to be 96%.
As for `C[C@@H]1CCC[C@H](C)N1NC(=O)c1ccc2c(c1)N=C(c1ccc(Cl)c(Cl)c1)c1ccccc1S2` [drawing 739], the Emax under setting [2] is 114%. The IC50 under setting [3] is 7.94 nM.
For `O=C(NC1CCCCC1)c1ccc2c(c1)N=C(c1ccccc1F)c1ccccc1S2` [drawing 740], under setting [1], the IC50 was 79.4 nM. Besides, the Emax under setting [2] was 109%.
For the compound `CC(C)CNC(=O)c1ccc2c(c1)N=C(c1ccc(Cl)cc1)c1ccccc1S2` [drawing 741], the Emax under setting [2] is 123%. This compound gave an IC50 under setting [3] of 7.94 nM.
Regarding `O=C(NC1CCCC1)c1ccc2c(c1)N=C(c1cccc(F)c1)c1ccccc1S2` [drawing 742], the IC50 under setting [1] is 79.4 nM. Moreover, under setting [2], the Emax was found to be 100%.
The like results for `O=C(NCCc1ccccc1)c1ccc2c(c1)N=C(c1ccc(Cl)cc1)c1ccccc1S2` [drawing 743] were, in that order, 7.94 nM and 110%.
Regarding `O=C(NN1CCCCC1)c1ccc2c(c1)N=C(C1CCCCC1)c1ccccc1S2` [drawing 744], the Emax (read-out: % Inhibition, Appendix A, receptor form not stated, relative to SR141716 (100%)) was found to be 86%.
As for `O=C(NCc1ccc(F)cc1)c1ccc2c(c1)N=C(c1ccccc1)c1ccccc1S2` [drawing 745], the IC50 under setting [1] is 7.94 nM. The Emax under setting [2] came to 108%.
For `NS(=O)(=O)c1ccc(CNC(=O)c2ccc3c(c2)N=C(c2ccc(Cl)cc2)c2ccccc2S3)cc1` [drawing 746], in that order: 79.4 nM and 76%.
Usually pIC50 stands for −log10 of the IC50, conventionally taken in molar units. A low value points to a high IC50. Usually % Inhibition stands for the change of the read-out against control, counted positive when it falls. For `O=C(NCc1cccc(Cl)c1)c1ccc2c(c1)N=C(c1ccc(F)cc1)c1ccccc1S2` [drawing 747], the negative-log IC50 (pIC50) (Appendix A, receptor form (mutant or wild-type) not stated) is 8.1. Besides, the “% Inhibition” value (Appendix A, receptor form not stated, relative to SR141716 (100%)) is listed as 106%.
As for `CC(NC(=O)c1ccc2c(c1)N=C(c1ccccc1F)c1ccccc1S2)c1ccccc1` (centres unmarked) [drawing 748], under setting [1], the IC50 is 79.4 nM. The Emax under setting [2] was 69%.
As for `O=C(NCc1cccs1)c1ccc2c(c1)N=C(c1ccc(Cl)cc1)c1ccccc1S2` [drawing 751], the IC50 under setting [1] was 7.94 nM. Also, the Emax under setting [2] was determined as 107%.
In the case of `CN1c2ccc(C(=O)NCc3ccc(F)cc3)cc2N=C(c2ccc(F)cc2)c2ccccc21` [drawing 752], the IC50 under setting [1] was 79.4 nM. Under setting [2], the Emax came out at 91%.
For the compound `O=C(NCc1ccco1)c1ccc2c(c1)N=C(c1ccc(Cl)cc1)c1ccccc1S2` [drawing 753], the IC50 under setting [1] was 7.94 nM. Moreover, the Emax under setting [2] stood at 94%.
Regarding `O=C(NCc1ccccc1)c1ccc2c(c1)N=C(c1ccccc1)c1ccccc1S2` [drawing 755], the IC50 under setting [1] was 10 nM. Besides, under setting [2], the Emax came to 111%.
On to `Cc1ccsc1C1=Nc2cc(C(=O)NCC(C)C)ccc2Sc2ccccc21` [drawing 757], for which the IC50 under setting [1] was 10 nM. The Emax under setting [2] turned out to be 88%.
As for `O=C(NCc1cccc(Cl)c1)c1ccc2c(c1)N=C(N1CCCCC1)c1ccccc1[S+]2[O-]` (centres unmarked) [drawing 758], under setting [1], the IC50 is 100 nM. Besides, under setting [2], the Emax was found to be 71%.
As to `O=C(NCc1ccccc1)c1ccc2c(c1)N=C(c1ccc(F)cc1)c1ccccc1S2` [drawing 759], the IC50 under setting [1] is 10 nM. Under setting [2], the Emax stood at 96%.
For `CC(NC(=O)c1ccc2c(c1)N=C(c1ccc(F)cc1)c1ccccc1S2)c1ccccc1` (centres unmarked) [drawing 760], in that order: 100 nM and 81%.
For the compound `CCCCNC(=O)c1ccc2c(c1)N=C(c1ccccc1)c1ccccc1S2` [drawing 761], the IC50 under setting [1] was 10 nM. In addition, the Emax under setting [2] is 104%.
For `CCCC1=Nc2cc(C(=O)NCCCc3ccccc3)ccc2Sc2ccccc21` [drawing 763], in that order: 10 nM and 104%.
On to `O=C(NNC(=O)c1ccc2c(c1)N=C(c1ccc(F)cc1)c1ccccc1S2)c1ccccc1` [drawing 764], for which the IC50 under setting [1] was 100 nM. The Emax under setting [2] was 83%.
Consider `Cc1ccc(CNC(=O)c2ccc3c(c2)N=C(c2ccc(Cl)s2)c2ccccc2S3)o1` [drawing 765], for which the IC50 under setting [1] is 10 nM. Further, the Emax under setting [2] turned out to be 92%.
Regarding `CCCCNC(=O)c1ccc2c(c1)N=C(c1ccc(Cl)cc1)c1ccc(Cl)cc1S2` [drawing 766], the Emax under setting [2] was 90%. The same compound had an IC50 under setting [3] of 100 nM.
For `O=C(NC1CCC(F)(F)CC1)c1ccc2c(c1)N=C(c1ccc(Cl)s1)c1ccccc1S2` [drawing 767], the IC50 under setting [1] was 10 nM. The Emax under setting [2] came to 71%.
The like results for `CCCCNC(=O)c1ccc2c(c1)N=C(c1ccc(Cl)c(F)c1)c1ccccc1S2` [drawing 769] were, in that order, 10 nM and 106%.
Turning to `CC(C)CCNC(=O)c1ccc2c(c1)N=C(c1ccc(F)cc1)c1ccccc1S2` [drawing 771], the Emax under setting [2] is 107%. Further, the IC50 under setting [3] is 10 nM.
For `Cc1ccsc1C1=Nc2cc(C(=O)NN3[C@H](C)CCC[C@@H]3C)ccc2Sc2ccccc21` [drawing 772], in that order: 89% and 100 nM.
`CCN(CCNC(=O)c1ccc2c(c1)N=C(c1ccc(F)cc1)c1ccccc1S2)c1ccccc1` [drawing 773]: the IC50 under setting [1] is 10 nM. In addition, the Emax under setting [2] worked out at 99%.
For `O=C(NCCc1ccc(Cl)cc1)c1ccc2c(c1)N=C(N1CCCCC1)c1ccccc1S2` [drawing 775], in that order: 10 nM and 113%.
For the compound `CCN(CCNC(=O)c1ccc2c(c1)N=C(c1ccccc1)c1ccccc1S2)c1ccccc1` [drawing 777], the IC50 under setting [1] is 10 nM. Also, the Emax under setting [2] came out at 106%.
Turning to `O=C(NCCc1cccc(Cl)c1)c1ccc2c(c1)N=C(c1cccc(Cl)c1)c1ccccc1S2` [drawing 779], the IC50 under setting [1] is 10 nM. Moreover, the Emax under setting [2] came out at 107%.
Take `COc1ccc(C2=Nc3cc(C(=O)NC(C)C)ccc3Sc3ccccc32)cc1` [drawing 780]: the IC50 under setting [1] is 100 nM. The Emax under setting [2] is 84%.
On to `CC(C)CNC(=O)c1ccc2c(c1)N=C(c1ccc(Br)cc1)c1ccccc1S2` [drawing 781], for which the Emax under setting [2] was 80%. Moreover, the IC50 under setting [3] was 10 nM.
As to `O=C(NC1CCCC1)c1ccc2c(c1)N=C(c1ccc(Cl)cc1)c1ccccc1S2` [drawing 782], under setting [1], the IC50 is 100 nM. Moreover, under setting [2], the Emax came to 105%.
In the case of `CC(CNC(=O)c1ccc2c(c1)N=C(C1CCCCC1)c1ccccc1S2)c1ccccc1` (centres unmarked) [drawing 783], the IC50 under setting [1] was 10 nM. The Emax under setting [2] came out at 100%.
With `CCCCNC(=O)c1ccc2c(c1)N=C(c1ccc(F)cc1)c1ccccc1S2` [drawing 785], under setting [2], the Emax came out at 96%. The compound further showed an IC50 under setting [3] of 10 nM.
For the compound `CCCC1=Nc2cc(C(=O)NCc3ccc(F)cc3)ccc2Sc2ccccc21` [drawing 787], the IC50 under setting [1] is 10 nM. The Emax under setting [2] was determined as 107%.
The like results for `CCOCCNC(=O)c1ccc2c(c1)N=C(c1ccc(C#N)cc1)c1ccccc1S2` [drawing 788] were, in that order, 100 nM and 74%.
Regarding `CCOCCNC(=O)c1ccc2c(c1)N=C(c1cccc(Br)c1)c1ccccc1S2` [drawing 789], the IC50 under setting [1] is 10 nM. Moreover, under setting [2], the Emax amounted to 119%.
Regarding `CCCC1=Nc2cc(C(=O)NCc3ccccc3Cl)ccc2Sc2ccccc21` [drawing 791], the IC50 under setting [1] is 10 nM. Besides, the Emax under setting [2] was 105%.
Consider `O=C(NCc1cccnc1)c1ccc2c(c1)N=C(c1cccc(F)c1)c1ccccc1S2` [drawing 793], for which the IC50 under setting [1] is 10 nM. For the same compound, under setting [2], the Emax came to 130%.
The like results for `O=C(NCc1cccs1)c1ccc2c(c1)N=C(c1ccccc1F)c1ccccc1S2` [drawing 795] were, in that order, 10 nM and 114%.
For `O=C(NN1CCCCCC1)c1ccc2c(c1)N=C(c1ccc(Cl)s1)c1ccccc1S2` [drawing 797], under setting [1], the IC50 is 10 nM. Under setting [2], the Emax was found to be 105%.
In the case of `COc1ccc(C2=Nc3cc(C(=O)NNC(=O)c4ccccc4)ccc3Sc3ccccc32)cc1` [drawing 798], the Emax under setting [2] is 83%.
Consider `CCCNC(=O)c1ccc2c(c1)N=C(c1ccc(Cl)cc1)c1ccccc1S2` [drawing 799], for which, under setting [1], the IC50 was 10 nM. Further, under setting [2], the Emax worked out at 103%.
The like results for `Cc1ccc(CNC(=O)c2ccc3c(c2)N=C(c2ccc(Cl)c(Cl)c2)c2ccccc2S3)o1` [drawing 801] were, in that order, 10 nM and 100%.
For `Cc1ccc(CNC(=O)c2ccc3c(c2)N=C(c2ccsc2)c2ccccc2S3)o1` [drawing 803], in that order: 10 nM and 94%.
Consider `Cc1cccc(C2=Nc3cc(C(=O)NCc4ccc(C)o4)ccc3Sc3ccccc32)n1` [drawing 805], for which, under setting [1], the IC50 is 10 nM. The Emax under setting [2] came to 96%.
`CCONC(=O)c1ccc2c(c1)N=C(c1ccc(Cl)c(Cl)c1)c1ccccc1S2` [drawing 806]: the Emax under setting [2] stood at 87%.
In the case of `CCCCNC(=O)c1ccc2c(c1)N=C(c1ccc(Br)cn1)c1ccccc1S2` [drawing 807], the IC50 under setting [1] was 10 nM. In addition, the Emax under setting [2] amounted to 105%.
As to `Cc1cccc(C2=Nc3cc(C(=O)NCC(C)C)ccc3Sc3ccccc32)n1` [drawing 809], under setting [1], the IC50 is 10 nM. Besides, under setting [2], the Emax is 82%.
The like results for `C[C@@H]1CCC[C@H](C)N1NC(=O)c1ccc2c(c1)N=C(c1ccc(Cl)cc1F)c1ccccc1S2` [drawing 811] were, in that order, 10 nM and 103%.
`NS(=O)(=O)c1ccc(CNC(=O)c2ccc3c(c2)N=C(c2ccc(F)cc2)c2ccccc2S3)cc1` [drawing 812]: the Emax under setting [2] stood at 83%.
`CCCCNC(=O)c1ccc2c(c1)N=C(c1ccc(Cl)cn1)c1ccccc1S2` [drawing 813]: the IC50 under setting [1] is 10 nM. Under setting [2], the Emax is 106%.
